Results taken from patent publication US9301943B2, “Use of eupatilin” (UNIVERSITY-INDUSTRY COOPERATION GROUP OF KYUNG HEE …, priority 2011, dated 2016).

Assays:
estrogen receptor [1] = assay: Luciferase assay (3×ERE TATA luc), MCF7 cell line; assay type: cell-based, human; details: for Estrogen receptor subtype through which the substance acts (luciferase assay with siERα / siERβ): MCF-7 breast cancer cells, siRNA 50 nM; for Luciferase activity (-fold): MCF7, 24 h, non-treated group = 1
Experimental: (§1) MCF-7 (estrogen receptor-positive human breast cancer cell line), Ishikawa (estrogen receptor-positive endometrial cancer cell line), and MG-63 (human osteosarcoma; osteoblast-like cell line) were obtained from the American Type Culture Collection (ATCC). BG-1 (uterine cancer cell line) was furnished by courtesy of Dr. Korach (NIH, USA). Cells were cultured in a Dulbecco's modified Eagle's medium (DMEM) containing 10% fetal bovine serum (FBS), 100 U/ml penicillin and 100 U/ml streptomycin, at 37° C. and 5% CO2.
(§2) The luciferase assay is an assay of estimating an estrogenic activity by measuring the degree of a luciferase activity generated upon binding of a substance having an estrogenic activity to an estrogen receptor. This assay was carried out in the following procedure. Unless otherwise specified, the reagents used were purchased from Gibco (Karlwruhe, Germany).
(§3) The luciferase reporter plasmid used was 3×ERE TATA luc. (Addgene, Cambridge, USA). In order to control transfection efficiency, phRenilla-luciferase-CMV (Promega, Mannheim, Germany) as an internal control plasmid was co-transfected. Cells were cultured at a density of 2×10^5 cells/well in a 6-well plate, in a phenol red-free DMEM (Dulbecco's modified Eagle's medium) supplemented with 100 U/ml penicillin, […] streptomycin, 1 mM sodium pyruvate, 1 mM glutamine, and 10% charcoal dextran-treated fetal bovine serum (FBS). After the cells were cultured to a 50 to 60% confluence, the medium was removed, the cells were placed at 37° C. and 5% CO2 for 6 hours on a serum-free OPTI-MEM medium containing plasmid DNA constructs and 2 μg/ml of polyethyleneimine (PEI), according to the manufacturer's instructions. 1 μg/well of 3×ERE TATA luc and 100 ng of a phRL-CMV plasmid were subjected to transfection.
(§4) After the period of transfection, the medium was replaced with a phenol-free DMEM supplemented with 10% charcoal dextran-treated FBS, and the cells were cultured at 37° C. and 5% CO2 overnight prior to treatment of eupatilin.
(§5) After 18 hours of culture, the medium was replaced with a eupatilin-containing medium. The proteins were extracted 24 hours later, and firefly and renilla luciferase activities were measured on a luminometer (Molecular Devices, Sunnyvale, Calif.) using a Dual Luciferase Assay kit (Promega, Madison, Wis.) according to the manufacturer's instructions.
(§6) All experiments were carried out in triplicate and were repeated at least three times. For the luciferase assay, total cell lysates were prepared, the firefly luciferase activity was assayed and normalized to the renilla luciferase activity according to the manufacturer's instructions (Promega). Further, in order to knock down the cell levels of specific proteins, cells with co-transfection of small interfering RNAs (siRNAs) together with 3×ERE TATA luc and phRL-CMV were prepared and subjected to the same treatment of eupatilin or the like as in the cells which were not treated with siRNAs. The siRNAs used were purchased from Bioneer Corporation (Daejeon, South Korea) and treated at a concentration of 50 nM. The “siERα” means siRNA which inhibits the expression of ERα, and the “siERβ” means siRNA which inhibits the expression of ERβ.

estrogen receptor [2] = assay: Luciferase assay (3×ERE TATA luc), Ishikawa cells; assay type: cell-based; details: for Estrogen receptor subtype through which the substance acts (luciferase assay with siERα / siERβ): Ishikawa endometrial cancer cells, siRNA 50 nM; for Luciferase activity (-fold): Ishikawa, 24 h, non-treated group = 1
Experimental: as §1, §2, §3, §4, §5, §6

estrogen receptor [3] = assay: Luciferase assay (3×ERE TATA luc), BG-1 cell line; assay type: cell-based; details: 24 h, non-treated group = 1
Experimental: as §1, §2
as §3, with “1 μg/well of 3×ERE TATA luc and 100 ng of a phRL-CMV plasmid were subjected to transfection.” left out
as §5, with “instructions. […]” for “instructions.”

estrogen receptor [4] = molecular target: T1, estrogen receptor (Homo sapiens, UniProt Q92731); assay: Luciferase assay (3×ERE TATA luc), MG63 cell line; assay type: cell-based; details: for Luciferase activity (-fold): MG63, 24 h, non-treated group = 1
T1 construct: MG-63 (human osteosarcoma; osteoblast-like cell line); endogenous in cells; host or cells: MG-63
T1 sequence (Q92731 whole entry): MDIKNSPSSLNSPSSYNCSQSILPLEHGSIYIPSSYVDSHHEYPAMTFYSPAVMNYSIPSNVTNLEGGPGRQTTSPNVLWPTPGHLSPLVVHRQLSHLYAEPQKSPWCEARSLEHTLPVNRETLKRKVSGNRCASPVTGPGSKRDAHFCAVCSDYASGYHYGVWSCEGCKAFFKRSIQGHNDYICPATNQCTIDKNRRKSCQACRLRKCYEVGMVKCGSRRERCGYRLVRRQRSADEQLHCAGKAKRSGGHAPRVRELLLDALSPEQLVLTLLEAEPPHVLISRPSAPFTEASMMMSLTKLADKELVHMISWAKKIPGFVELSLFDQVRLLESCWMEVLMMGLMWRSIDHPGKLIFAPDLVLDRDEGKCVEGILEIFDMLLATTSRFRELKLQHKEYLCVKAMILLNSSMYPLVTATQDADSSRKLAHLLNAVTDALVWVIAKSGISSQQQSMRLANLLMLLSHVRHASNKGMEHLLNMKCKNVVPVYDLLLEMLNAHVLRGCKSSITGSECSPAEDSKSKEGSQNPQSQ
Experimental: as §1, §2, §3, §4, §5
All experiments were carried out in triplicate and were repeated at least three times. For the luciferase assay, total cell lysates were prepared, the firefly luciferase activity was assayed and normalized to the renilla luciferase activity according to the manufacturer's instructions (Promega). […]

MCF7 breast cancer cells = assay: MTT assay, cancer cell growth; assay type: cell-based, human; details: 48 h, control DMSO
Experimental: Cell viability was estimated by the MTT (3-[4,5-dimethylthiazol-2-yl]-2,5-diphenyltetrazolium bromide; Sigma-Aldrich) assay to confirm cancer cell growth inhibitory effects of eupatilin.
MCF7 breast cancer cells were seeded onto a 96-well plate and incubated for 24 hours. […] On the day of collection, 50 μl of MTT solution (5 mg/ml in PBS) was added to the medium, followed by incubation at 37° C. for 4 hours. The MTT-containing medium was removed and the cells were solubilized in DMSO (100 μl) for 30 min. The cell viability was determined in terms of an optical density at 540 nm using a microplate spectrophotometer (SpectraMax; Molecular Devices, Sunnyvale, Calif.).
Ethanol which is a vehicle was served as control for the E2-treated group, and DMSO was served as control for the eupatilin-treated group.
The viability is expressed in terms of a relative ratio by taking a value of the control to be 100, and the lethality is also expressed in terms of a relative ratio by taking a value of the control to be 100.

MG-63 cells = assay: ALP activity in osteoblastic cells; assay type: cell-based, human; details: 24 h
Experimental: The ALP activity in MG-63 cells treated with eupatilin was measured to confirm that eupatilin enhances a bone density in osteoblastic cells. […] Based on the fact that ALP degrades p-nitrophenylphosphate into p-nitrophenol and phosphate, effects of eupatilin on osteoblasts were observed by measuring an ALP activity in terms of an absorbance ratio between the absorbance of each substance and the absorbance of the control at 405 nm.
After 24 hours of the treatment, lysates were prepared and slowly shaken for 30 min. Then, the ALP activity was assayed by measuring the release of p-nitrophenol from p-nitrophenylphosphate (20 mM in 1M diethanolamine buffer supplemented with MgCl2 at pH 9.8). The absorbance was measured at 405 nm. The standard curve was drawn using various concentrations of […] within the range of 0 to 0.1 U/ml PBS-T. The ALP values were adjusted for the protein content of the corresponding cell lysates. The cultures protein content was quantified by means of a bicinchoninic acid protein assay (Thermo Scientific). The results obtained were compared with those of the control to which only BSA was added at a concentration of 100 nM and no specimen was added.

## C[C@]12CC[C@@H]3c4ccc(O)cc4CC[C@H]3[C@@H]1CC[C@@H]2O [E2, 17-β-estradiol, reference compound]
Estrogen receptor [1]; E2 10^−7 M, FIG. 1
  Estrogen receptor subtype through which the substance acts (luciferase assay with siERα / siERβ): largely induces cell proliferation via only ERα
Estrogen receptor [2]; E2 10^−7 M, FIG. 2
  Estrogen receptor subtype through which the substance acts (luciferase assay with siERα / siERβ): largely induces cell proliferation via only ERα

## COc1ccc(-c2cc(=O)c3c(O)c(OC)c(O)cc3o2)cc1OC [Eupatilin, 5,7-dihydroxy-3′,4′,6-trimethoxyflavone]
Estrogen receptor [1]; eupatilin 0.01 μg/ml
  Luciferase activity (-fold): 2.4 -fold
Estrogen receptor [1]; eupatilin 0.1 μg/ml
  Luciferase activity (-fold): 2.3 -fold
Estrogen receptor [1]; eupatilin 1 μg/ml
  Luciferase activity (-fold): 2.8 -fold
Estrogen receptor [1]; eupatilin 0.1 or 1.0 μg/ml, FIG. 3
  Estrogen receptor subtype through which the substance acts (luciferase assay with siERα / siERβ): acts equally on both ERα and ERβ
Estrogen receptor [3]; eupatilin 0.01 μg/ml
  Luciferase activity (-fold): 2.9 -fold
Estrogen receptor [3]; eupatilin 0.1 μg/ml
  Luciferase activity (-fold): 3.3 -fold
Estrogen receptor [3]; eupatilin 1 μg/ml
  Luciferase activity (-fold): 3.7 -fold
Estrogen receptor [2]; eupatilin 0.1 or 1.0 μg/ml, FIG. 4
  Estrogen receptor subtype through which the substance acts (luciferase assay with siERα / siERβ): acts equally on both ERα and ERβ
Estrogen receptor [2]; eupatilin 0.01 μg/ml
  Luciferase activity (-fold): 1.4 -fold
Estrogen receptor [2]; eupatilin 0.1 μg/ml
  Luciferase activity (-fold): 1.9 -fold
Estrogen receptor [2]; eupatilin 1 μg/ml
  Luciferase activity (-fold): 2.9 -fold
Estrogen receptor [4]; eupatilin 0.01 μg/ml
  Luciferase activity (-fold): 2.1 -fold
Estrogen receptor [4]; eupatilin 0.1 μg/ml
  Luciferase activity (-fold): 1.7 -fold
Estrogen receptor [4]; eupatilin 1 μg/ml
  Luciferase activity (-fold): 1.6 -fold
Estrogen receptor [4]; MG-63 osteoblastic cells, siRNA 50 nM, eupatilin 0.1 or 1.0 μg/ml, FIG. 6
  Estrogen receptor subtype through which the substance acts (luciferase assay with siERα / siERβ): acts selectively on ERβ
MCF7 breast cancer cells; eupatilin 0.1 μg/ml
  Cell lethality (% relative to control): 21.5 % relative to control
MCF7 breast cancer cells; eupatilin 1 μg/ml
  Cell lethality (% relative to control): 24.5 % relative to control
MG-63 cells; eupatilin 0.2 μg/ml
  ALP activity (% relative to control): 20.5 % relative to control
MG-63 cells; eupatilin 2.0 μg/ml
  ALP activity (% relative to control): 60 % relative to control
